Laboratory results as given in publication PMC7221826, “5-Oxo-hexahydroquinoline Derivatives and Their Tetrahydroquinoline Counterparts as Multidrug Resistance Reversal Agents” (Molecules, 2020).
Where two headings read alike, the source gives them in different places.

How the values were obtained:
[1] = system: MES-SA-DX5; assay: MTT cell viability assay, MES-SA-DX5; assay type: cell-based, human; conditions: multidrug resistant, P-gp overexpressing, read-out: IC50 (µM) in Cultured Cells MES-SA-DX5
Excerpt: (§1) Cell lines used for cytotoxicity assays included MCF-7 (human breast adenocarcinoma), A549 (human lung adenocarcinoma), K562 (human chronic myelogenous leukemia) and HEK-293 (human embryonic kidney) cells and were obtained from the Iranian Biological Resource Center, Tehran, Iran. MES-SA-DX5 multidrug resistant human uterine sarcoma, over-expressing P-gp and their parental non-resistant MES-SA cell lines were purchased from Sigma-Aldrich (St. Louis, MO, USA). All cells, except for HEK-293, were cultured in RPMI 1640 supplemented with 10% FBS and 100 units/mL penicillin-streptomycin at 37 °C in humidified air containing 5% CO2. HEK-293 cells were maintained in DMEM-F12 medium containing L-glutamine 2 mM supplemented with FBS and penicillin-streptomycin. MES-SA-DX5 cells were maintained in media containing 100 nM doxorubicin in order to ensure that only drug-resistant cells continue to grow.
(§2) Cytotoxicity of the test compounds were evaluated by MTT assay. In this method, reduction of MTT, a yellow tetrazolium salt to the purple formazan, by cellular dehydrogenase enzymes is determined as an index of cell viability. Cancer cells were seeded into 96-well plates (3–5 × 10^3 cells/well) and incubated for 24 h at 37 °C. Afterwards, four different concentrations of synthesized derivatives were added in triplicate and the cells were incubated at 37 °C for another 72 h, after which the media was replaced with MTT solution at a concentration of 0.5 mg/mL was added for MTT assay. After another 4h, formazan crystals were dissolved in 200 μL DMSO for 90 min and absorbance was measured at a wavelength of 570 nm with background correction at 650 nm using a microplate reader (model 680, Bio-Rad, Hercules, CA, USA) and IC50 for each compound was calculated with CurveExpert version 1.34 for Windows.

[2] = system: MCF-7; assay: MTT cell viability assay, MCF-7; assay type: cell-based, human; conditions: read-out: IC50 (µM) in Cultured Cells MCF-7
Excerpt: as §1, §2

[3] = system: A-549; assay: MTT cell viability assay, A-549; assay type: cell-based, human; conditions: read-out: IC50 (µM) in Cultured Cells A-549
Excerpt: as §1, §2

[4] = system: K562; assay: MTT cell viability assay, K562; assay type: cell-based, human; conditions: read-out: IC50 (µM) in Cultured Cells K562
Excerpt: as §1, §2

[5] = system: MES-SA; assay: MTT cell viability assay, MES-SA; assay type: cell-based, human; conditions: for IC50: MTT, 72 h, parental non-resistant, read-out: IC50 (µM) in Cultured Cells MES-SA
Excerpt: as §1, §2

[6] = system: HEK-293; assay: MTT cell viability assay, HEK-293; assay type: cell-based, human; conditions: non-cancerous, read-out: IC50 (µM) in Cultured Cells HEK-293
Excerpt: as §1, §2

[7] = system: MES-SA-DX5 cells; assay: Cell cycle analysis by propidium iodide (PI)-RNase flow cytometry; assay type: cell-based, human; design: Sub G1: unit not given here; conditions: 24 h
Description: The analysis of cells in different phases of cell cycle and sub-G1 was performed using propidium iodide (PI)-RNase assay by flow cytometry. MES-SA-DX5 cells were seeded in 12-well plates (1 × 10^6 cells/well) and treated with different concentrations of synthesized compounds for 24 h. The cells were then collected, washed with PBS, and fixed with 70% ethanol overnight at –20 °C. After at least 24 h, fixed cells were washed with PBS and subsequently stained with a DNA staining solution containing PI 20 μg/mL and RNase 200 μg/mL at room temperature for 30 min in the dark. Twenty thousand cells of each sample were analyzed using a BD FACSCalibur flow cytometer (BD Biosciences, USA) and the amount of the cells in sub-G1, G0/G1, S, and G2/M phases were estimated using CellQuest (Becton Dickinson, San Jose, CA, USA) software.
Therefore, it could be concluded that these compounds cause cytotoxicity in drug resistant MES-SA-DX5 cells by induction of apoptosis in these cells.
Figure 3 Effect of synthesized derivatives on cell cycle alterations in MES-SA-DX5 drug resistant cells. The cells in different phases of cell cycle were monitored using propidium iodide (PI)-RNase assay by flow cytometry. MES-SA-DX5 cells were seeded in 12-well plates (1 × 10^6 cells/well) and treated with different concentrations of synthesized compounds for 24 h. The cells were then collected, washed with PBS and fixed with 70% ethanol overnight at –20 °C. After at least 24 h, fixed cells were washed with PBS and subsequently stained with a DNA staining solution containing PI 20 μg/mL and RNase 200 μg/mL at room temperature for 30 min in the dark. Twenty thousand cells of each sample were analyzed using a FACS Calibur flow cytometer (BD Biosciences, USA). Representative histograms of cells treated with synthesized compounds are shown. An increase in sub-G1 phase cells could be observed after treatment with A1, A2, B1, and B2 compounds.

| Molecule | IC50 ([2]; Homo sapiens, MCF7, 72 h) | IC50 ([3]; Homo sapiens, A549, 72 h) | IC50 ([4]; Homo sapiens, K562, 72 h) | melting point | IC50 ([1]; Homo sapiens, MES-SA/Dx5, 72 h) | also measured |
| --- | --- | --- | --- | --- | --- | --- |
| 4-(3,4-Dimethoxyphenyl)-2-methyl-N-(5-methylthiazol-2-yl)-5-oxo-5,6,7,8-tetrahydroquinoline-3-carboxamide [Compound B8] |  |  |  |  |  | IC50 ([1]; 72 h): > 100 µM; IC50 ([2]; 72 h): > 100 µM; IC50 ([3]; 72 h): > 100 µM; IC50 ([4]; 72 h): 67.5 ± 8 µM |
| N.N.[Cl][Pt][Cl] [Cisplatin, cisplatin, reference compound] |  |  |  |  |  | IC50 ([1]; 72 h): 8.6 ± 0.5 µM; IC50 [5]: 1.2 ± 0.1 µM; IC50 ([2]; 72 h): 26.3 ± 7.9 µM; IC50 ([3]; 72 h): 14 ± 0.5 µM; IC50 ([4]; 72 h): 3.3 ± 2.3 µM; IC50 ([6]; 72 h): 1.1 ± 0.5 µM |
| Cc1nc(NC(=O)c2c(C)nc3c(c2-c2cccc(Cl)c2)C(=O)CCC3)cs1 [Compound B3, 4-(3-Chlorophenyl)-2-methyl-N-(2-methylthiazol-4-yl)-5-oxo-5,6,7,8-tetrahydroquinoline-3-carboxamide] | > 100 µM | > 100 µM | 50.2 ± 2.6 µM | 241 °C | 85.2 ± 7.4 µM | IC50 ([5]; Homo sapiens, MES-SA): > 100 µM; IC50 ([6]; 72 h): > 100 µM; IC50 ([6]; Homo sapiens, HEK293, 72 h): > 50 µM |
| CCOc1cc(-c2c(C(=O)Nc3csc(C)n3)c(C)nc3c2C(=O)CCC3)ccc1O [Compound B6, 4-(3-Ethoxy-4-hydroxyphenyl)-2-methyl-N-(2-methylthiazol-4-yl)-5-oxo-5,6,7,8-tetrahydroquinoline-3-carboxamide] | > 100 µM | > 100 µM | > 100 µM | 267 °C | > 100 µM |  |
| COc1cccc2c1C(=O)c1c(O)c3c(c(O)c1C2=O)C[C@@](O)(C(=O)CO)C[C@@H]3O[C@H]1C[C@H](N)[C@H](O)[C@H](C)O1 [Doxorubicin, reference compound] | 0.115 ± 0.042 µM | 0.575 ± 0.127 µM | 0.042 ± 0.006 µM |  | 2.2 ± 0.3 µM | G0/G1 ([7]; 2.5 µM): 34.23 ± 3.3; G2/M ([7]; 2.5 µM): 52.10 ± 4.4; S ([7]; 2.5 µM): 12.57 ± 1.4; Sub G1 ([7]; 2.5 µM): 1.08 ± 0.2; G0/G1 ([7]; 5 µM): 21.50 ± 2.5; G2/M ([7]; 5 µM): 64.13 ± 4.2; S ([7]; 5 µM): 12.57 ± 1.7; Sub G1 ([7]; 5 µM): 1.81 ± 0.3; IC50 ([5]; Homo sapiens, MES-SA): 0.01 ± 0.002 µM; sensitivity of parental MES-SA cells compared to resistant cells ([5]; MES-SA vs MES-SA-DX5, MTT): more than 200 times; IC50 ([6]; Homo sapiens, HEK293, 72 h): 0.009 ± 0.002 µM |

Now from value to molecule, other results behind:

| IC50 ([2]; Homo sapiens, MCF7, 72 h) | IC50 ([3]; Homo sapiens, A549, 72 h) | IC50 ([4]; Homo sapiens, K562, 72 h) | melting point | Molecule | IC50 ([1]; Homo sapiens, MES-SA/Dx5, 72 h) | also measured |
| --- | --- | --- | --- | --- | --- | --- |
| > 100 µM | > 100 µM | 56.4 ± 7 µM | 253 °C | CC1=C(C(=O)Nc2csc(C)n2)C(c2cccc(Cl)c2)C2=C(CCCC2=O)N1 (stereo not drawn) [Compound A3, 4-(3-Chlorophenyl)-2-methyl-N-(2-methylthiazol-4-yl)-5-oxo-1,4,5,6,7,8-hexahydroquinoline-3-carboxamide] | 78 ± 4 µM | G0/G1 ([7]; 10 µM): 50.35 ± 4.5; G2/M ([7]; 10 µM): 23.25 ± 1.6; S ([7]; 10 µM): 18.23 ± 2.6; Sub G1 ([7]; 10 µM): 0.51 ± 0.1; G0/G1 ([7]; 25 µM): 56.18 ± 1.2; G2/M ([7]; 25 µM): 23.08 ± 1.0; S ([7]; 25 µM): 19.70 ± 2.0; Sub G1 ([7]; 25 µM): 0.97 ± 0.2; G0/G1 ([7]; 100 µM): 53.64 ± 1.4; G2/M ([7]; 100 µM): 29.46 ± 1.8; S ([7]; 100 µM): 13.31 ± 1.0; IC50 ([5]; Homo sapiens, MES-SA): > 100 µM; IC50 ([6]; 72 h): 93.7 ± 11.9 µM; IC50 ([6]; Homo sapiens, HEK293, 72 h): > 50 µM |
| > 100 µM | > 100 µM | > 100 µM | 160 °C | COc1cc(C2C(C(=O)Nc3csc(C)n3)=C(C)NC3=C2C(=O)CCC3)cc(OC)c1OC (stereo not drawn) [Compound A4, 2-Methyl-N-(2-methylthiazol-4-yl)-5-oxo-4-(3,4,5-trimethoxyphenyl)-1,4,5,6,7,8-hexahydroquinoline-3-carboxamide] | > 100 µM |  |
| > 100 µM | > 100 µM | > 100 µM | 251 °C | CCOc1cc(C2C(C(=O)Nc3csc(C)n3)=C(C)NC3=C2C(=O)CCC3)ccc1O (stereo not drawn) [Compound A6, 4-(3-Ethoxy-4-hydroxyphenyl)-2-methyl-N-(2-methylthiazol-4-yl)-5-oxo-1,4,5,6,7,8-hexahydroquinoline-3-carboxamide] | > 100 µM |  |
| > 100 µM | > 100 µM | > 100 µM | 185 °C | COc1ccc(C2C(C(=O)Nc3csc(C)n3)=C(C)NC3=C2C(=O)CCC3)cc1 (stereo not drawn) [Compound A7, 4-(4-Methoxyphenyl)-2-methyl-N-(2-methylthiazol-4-yl)-5-oxo-1,4,5,6,7,8-hexahydroquinoline-3-carboxamide] | > 100 µM |  |
| > 100 µM | > 100 µM | > 100 µM | 222 °C | COc1ccc(C2C(C(=O)Nc3csc(C)n3)=C(C)NC3=C2C(=O)CCC3)cc1OC (stereo not drawn) [Compound A8, 4-(3,4-Dimethoxyphenyl)-2-methyl-N-(2-methylthiazol-4-yl)-5-oxo-1,4,5,6,7,8-hexahydroquinoline-3-carboxamide] | > 100 µM |  |
| > 100 µM | > 100 µM | > 100 µM | 238 °C | COc1cc(-c2c(C(=O)Nc3csc(C)n3)c(C)nc3c2C(=O)CCC3)cc(OC)c1OC [Compound B4, 2-Methyl-N-(2-methylthiazol-4-yl)-5-oxo-4-(3,4,5-trimethoxyphenyl)-5,6,7,8-tetrahydroquinoline-3-carboxamide] | > 100 µM |  |
| > 100 µM | > 100 µM | 32.9 ± 5.1 µM | 166 °C | COc1ccc(-c2c(C(=O)Nc3csc(C)n3)c(C)nc3c2C(=O)CCC3)cc1 [Compound B7, 4-(4-Methoxyphenyl)-2-methyl-N-(2-methylthiazol-4-yl)-5-oxo-5,6,7,8-tetrahydroquinoline-3-carboxamide] | > 100 µM |  |
